In brackets after ≈: the same amount, converted by molar mass. Read-outs that look alike come from different tables or passages of the source.
How the values were obtained:
Assay type in all cases: cell-based
Escherichia coli = assay: Antibacterial activity against clinically isolated strains, MIC; conditions: 38 clinical isolates, broth microdilution test
Klebsiella pneumoniae = assay: as above; conditions: 10 clinical isolates, broth microdilution test; for MIC90: read-out: MIC 90%
[1] = test system: Staphylococcus aureus methicillin susceptible; assay: as above
Pseudomonas aeruginosa = assay: as above
[2] = test system: Staphylococcus aureus methicillin resistant; assay: as above; conditions: methicillin resistant, 7 clinical isolates, broth microdilution test; for MIC90: read-out: MIC 90%
[3] = test system: Pseudomonas aeruginosa ATCC 27853; assay: Antibacterial activity, MIC; conditions: ATCC27853, ATCC 27853, agar two-fold dilution, 37° C., 20 hours, read-out: MIC
Method in brief: (§1)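 Agar two-fold dilution method: compound serially diluted two-fold in Mueller-Hinton agar, spotted with 2 μl of a 10^7 CFU/ml inoculum of each standard strain, then incubated at 37 °C for 20 h.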

[4] = test system: Morganella morganii ATCC 8076h; assay: Antibacterial activity, MIC; conditions: ATCC8076H, agar two-fold dilution, 37° C., 20 hours
Method in brief: as §1

[5] = test system: Staphylococcus aureus ATCC 10537; assay: Antibacterial activity, MIC; conditions: ATCC10537, ATCC 10537, agar two-fold dilution, 37° C., 20 hours, read-out: MIC
Method in brief: as §1

[6] = test system: Escherichia coli ATCC 25922; assay: Antibacterial activity, MIC; conditions: ATCC25922, agar two-fold dilution, 37° C., 20 hours
Method in brief: as §1

[7] = test system: Enterobacter cloacae ATCC 27508; assay: Antibacterial activity, MIC; conditions: ATCC27508, ATCC 27508, agar two-fold dilution, 37° C., 20 hours, read-out: MIC
Method in brief: as §1

[8] = test system: Shigella sonnei ATCC 11060; assay: Antibacterial activity, MIC; conditions: ATCC11060, ATCC 11060, agar two-fold dilution, 37° C., 20 hours, read-out: MIC
Method in brief: as §1

[9] = test system: Serratia marcescens ATCC 27117; assay: Antibacterial activity, MIC; conditions: ATCC27117, ATCC 27117, agar two-fold dilution, 37° C., 20 hours, read-out: MIC
Method in brief: as §1

[10] = test system: Streptococcus faecalis ATCC 29212; assay: Antibacterial activity, MIC; conditions: Enterococcus faecalis, ATCC29212; ATCC 29212; agar two-fold dilution, 37° C., 20 hours; read-out: MIC
Method in brief: as §1

[11] = test system: Staphylococcus epidermidis ATCC 12228; assay: Antibacterial activity, MIC; conditions: ATCC12228, ATCC 12228, agar two-fold dilution, 37° C., 20 hours, read-out: MIC
Method in brief: as §1

[12] = test system: Proteus mirabilis ATCC 25933; assay: Antibacterial activity, MIC; conditions: ATCC25933, ATCC 25933, agar two-fold dilution, 37° C., 20 hours, read-out: MIC
Method in brief: as §1

[13] = test system: Shigella flexneri ATCC 11836; assay: Antibacterial activity, MIC; conditions: ATCC11836, agar two-fold dilution, 37° C., 20 hours
Method in brief: as §1

[14] = test system: Escherichia coli ATCC 10536; assay: Antibacterial activity, MIC; conditions: ATCC10536, agar two-fold dilution, 37° C., 20 hours
Method in brief: as §1

[15] = test system: Bacillus cereus ATCC 11778; assay: Antibacterial activity, MIC; conditions: ATCC11778, ATCC 11778, agar two-fold dilution, 37° C., 20 hours, read-out: MIC
Method in brief: as §1

[16] = test system: Pseudomonas aeruginosa ATCC 25619; assay: Antibacterial activity, MIC; conditions: ATCC25619, ATCC 25619, agar two-fold dilution, 37° C., 20 hours, read-out: MIC
Method in brief: as §1

[17] = test system: Bacillus megaterium ATCC 9885; assay: Antibacterial activity, MIC; conditions: Priestia megaterium, ATCC9885; ATCC 9885; agar two-fold dilution, 37° C., 20 hours; read-out: MIC
Method in brief: as §1

[18] = test system: Micrococcus luteus ATCC 9341; assay: Antibacterial activity, MIC; conditions: ATCC9341, ATCC 9341, agar two-fold dilution, 37° C., 20 hours, read-out: MIC
Method in brief: as §1

[19] = test system: Salmonella typhimurium ATCC 14028; assay: Antibacterial activity, MIC; conditions: Salmonella enterica; ATCC 14028; agar two-fold dilution, 37° C., 20 hours; read-out: MIC
Method in brief: as §1

[20] = test system: Staphylococcus aureus ATCC 6538p; assay: Antibacterial activity, MIC; conditions: ATCC6538P, ATCC 6538p, agar two-fold dilution, 37° C., 20 hours, read-out: MIC
Method in brief: as §1

[21] = test system: Klebsiella pneumoniae ATCC 10031; assay: Antibacterial activity, MIC; conditions: ATCC10031, ATCC 10031, agar two-fold dilution, 37° C., 20 hours, read-out: MIC
Method in brief: as §1

[22] = test system: Proteus vulgaris ATCC 6059; assay: Antibacterial activity, MIC; conditions: ATCC6059, ATCC 6059, agar two-fold dilution, 37° C., 20 hours, read-out: MIC
Method in brief: as §1

[23] = test system: Acinetobacter calcoaceticus ATCC 15473; assay: Antibacterial activity, MIC; conditions: ATCC15473, ATCC 15473, agar two-fold dilution, 37° C., 20 hours, read-out: MIC
Method in brief: as §1

[24] = test system: Pseudomonas aeruginosa ATCC 10145; assay: Antibacterial activity, MIC; conditions: ATCC10145, ATCC 10145, agar two-fold dilution, 37° C., 20 hours, read-out: MIC
Method in brief: as §1

[25] = test system: Providencia rettgeri ATCC 9250; assay: Antibacterial activity, MIC; conditions: ATCC9250, agar two-fold dilution, 37° C., 20 hours
Method in brief: as §1

[26] = test system: Citrobacter freundii ATCC 8090; assay: Antibacterial activity, MIC; conditions: ATCC8090, ATCC 8090, agar two-fold dilution, 37° C., 20 hours, read-out: MIC
Method in brief: as §1

[27] = test system: Enterobacter aerogenes ATCC 29751; assay: Antibacterial activity, MIC; conditions: Klebsiella aerogenes, ATCC29751; ATCC 29751; agar two-fold dilution, 37° C., 20 hours; read-out: MIC
Method in brief: as §1

[28] = methicillin susceptible, 42 clinical isolates, broth microdilution test
[29] = 54 clinical isolates, broth microdilution test

Compound	MIC50 (Escherichia coli) [µg/mL]	MIC90 (Escherichia coli) [µg/mL]	MIC50 (Klebsiella pneumoniae) [µg/mL]	MIC90 (Klebsiella pneumoniae) [µg/mL]	MIC50 [1, 28] [µg/mL]	MIC50 (Pseudomonas aeruginosa; [29]) [µg/mL]	MIC50 [2] [µg/mL]	MIC90 [2] [µg/mL]	MIC [3] [µg/mL]	MIC [4] [µg/mL]	MIC [5] [µg/mL]	MIC [6] [µg/mL]	MIC [7] [µg/mL]	MIC [8] [µg/mL]	MIC [9] [µg/mL]	MIC [10] [µg/mL]	MIC [11] [µg/mL]	MIC [12] [µg/mL]	MIC [13] [µg/mL]	MIC [14] [µg/mL]	further results
C#CCO/N=C(\C(=O)NC1C(=O)N2C(C(=O)[O-])=C(CSc3nc(N)cc(N)[n+]3N)CSC12)c1csc(N)n1 (centres unmarked) [Compound I-18]	0.13 (≈ 0.225 µM)	0.25 (≈ 0.434 µM)	0.13 (≈ 0.225 µM)	0.13 (≈ 0.225 µM)	0.25 (≈ 0.434 µM)	4 (≈ 6.94 µM)	128 (≈ 222 µM)	> 128	2 (≈ 3.47 µM)	≤ 0.008	0.25 (≈ 0.434 µM)	0.063 (≈ 0.109 µM)	≤ 0.008	0.13 (≈ 0.225 µM)	0.13 (≈ 0.225 µM)	32 (≈ 55.5 µM)	0.063 (≈ 0.109 µM)	0.13 (≈ 0.225 µM)	0.016 (≈ 0.0277 µM)	0.13 (≈ 0.225 µM)	MIC (Klebsiella pneumoniae): 0.13 µg/mL (≈ 0.225 µM); MIC90 ([1]; methicillin susceptible, 42 clinical isolates, broth microdilution test, read-out: MIC 90%): 0.25 µg/mL (≈ 0.434 µM); MIC90 (Pseudomonas aeruginosa; 54 clinical isolates, broth microdilution test, read-out: MIC 90%): 8 µg/mL (≈ 13.9 µM); MIC [15]: 8 µg/mL (≈ 13.9 µM); MIC [16]: 0.5 µg/mL (≈ 0.867 µM); MIC [17]: 0.063 µg/mL (≈ 0.109 µM); MIC [18]: 0.013 µg/mL (≈ 0.0225 µM); MIC [19]: 0.25 µg/mL (≈ 0.434 µM); MIC [20]: 0.25 µg/mL (≈ 0.434 µM); MIC [21]: ≤ 0.008 µg/mL; MIC [22]: 0.13 µg/mL (≈ 0.225 µM); MIC [23]: 2 µg/mL (≈ 3.47 µM); MIC [24]: 4 µg/mL (≈ 6.94 µM); MIC [25]: ≤ 0.008 µg/mL; MIC [26]: 0.063 µg/mL (≈ 0.109 µM); MIC [27]: 0.25 µg/mL (≈ 0.434 µM)
CCO/N=C(\C(=O)NC1C(=O)N2C(C(=O)[O-])=C(CSc3nc(N)cc(N)[n+]3C)CSC12)c1nsc(N)n1 (centres unmarked) [Compound I-20]	0.063 (≈ 0.111 µM)	0.25 (≈ 0.441 µM)	0.13 (≈ 0.229 µM)	0.13 (≈ 0.229 µM)	0.5 (≈ 0.882 µM)	4 (≈ 7.06 µM)	16 (≈ 28.2 µM)	32 (≈ 56.5 µM)	2 (≈ 3.53 µM)	0.016 (≈ 0.0282 µM)	0.25 (≈ 0.441 µM)	0.13 (≈ 0.229 µM)	0.016 (≈ 0.0282 µM)	0.13 (≈ 0.229 µM)	0.25 (≈ 0.441 µM)	32 (≈ 56.5 µM)	0.25 (≈ 0.441 µM)	0.5 (≈ 0.882 µM)	0.031 (≈ 0.0547 µM)	0.13 (≈ 0.229 µM)	MIC90 [1]: 0.5 µg/mL (≈ 0.882 µM); MIC90 (Pseudomonas aeruginosa): 16 µg/mL (≈ 28.2 µM); MIC [15]: 32 µg/mL (≈ 56.5 µM); MIC [16]: 1 µg/mL (≈ 1.76 µM); MIC [17]: 0.13 µg/mL (≈ 0.229 µM); MIC [18]: 0.031 µg/mL (≈ 0.0547 µM); MIC [19]: 0.5 µg/mL (≈ 0.882 µM); MIC [20]: 0.5 µg/mL (≈ 0.882 µM); MIC [21]: 0.016 µg/mL (≈ 0.0282 µM); MIC [22]: 1 µg/mL (≈ 1.76 µM); MIC [23]: 2 µg/mL (≈ 3.53 µM); MIC [24]: 4 µg/mL (≈ 7.06 µM); MIC [25]: ≤ 0.008 µg/mL; MIC [26]: 0.13 µg/mL (≈ 0.229 µM); MIC [27]: 0.25 µg/mL (≈ 0.441 µM)
